Data: patent US12071431B2, “Pyridin-sulfonamide compounds for the treatment of conditions related to interleukin 1 beta” (ALLINKY BIOPHARMA, priority 2018, dated 2024)

Assays:
Bleomycin-induced IPF = assay: Treatment of bleomycin-induced IPF in mice; type: in vivo
Text: Example 16: Effect of Compound 7 in the Treatment of Bleomycin-Induced IPF Timed pregnant mice (n=30) were selected for the study. The delivered pups were subcutaneously injected on the post-natal day 2 (PND-2) with 1.5 U/kg of Bleomycin (intra-tracheal) and were allowed to remain with the mother until they reached the weanling age. After weanling, the male pups were selected and fed with 60% kcal fat diet (Research Diet-D12492) for the next week. All the animals were observed twice daily for clinical signs. Mice were orally dosed with vehicle, test compounds and reference compound (Pirfenidone) twice daily morning (9.00 AM) and evening before the start of dark cycle (6:00 PM) from day 0 to 14. Animal body weight measurements were made daily for the complete duration of the experiment. Animals were dosed for 14 days with the test and reference compounds. Lung hydroxyproline level was estimated before the treatment start and on the termination day 14. Total cell count and differential leukocyte count in BALF were measured before the treatment start and on […]. Histopathology analysis in the form of H&E Ashcroft score was performed for the lung tissues. All the H&E stained tissue sections were examined by light microscopy. As per the below grading system (Kleiner et al., 2005) in 200× objective lens, IPF scoring was carried out. Collagen Proportion Area (% CPA) Measurement: Masson's Trichrome Staining All the Masson's trichrome stained tissue sections were examined by light microscopy in 100× objective lens. Randomly selected five fields (approx 684.85 μm×917.11m per field) from each lung were subjected to collagen proportion area measurement by using Image Pro Premier 9.1 software. The percentage of collagen proportion area was calculated by dividing collagen tissue area by total tissue area.

p38 MAPK = p38 MAPK (Homo sapiens, UniProt Q16539); assay: In vitro binding of p38 MAPK, SPRi
p38 MAPK, sequence (Q16539 2-360): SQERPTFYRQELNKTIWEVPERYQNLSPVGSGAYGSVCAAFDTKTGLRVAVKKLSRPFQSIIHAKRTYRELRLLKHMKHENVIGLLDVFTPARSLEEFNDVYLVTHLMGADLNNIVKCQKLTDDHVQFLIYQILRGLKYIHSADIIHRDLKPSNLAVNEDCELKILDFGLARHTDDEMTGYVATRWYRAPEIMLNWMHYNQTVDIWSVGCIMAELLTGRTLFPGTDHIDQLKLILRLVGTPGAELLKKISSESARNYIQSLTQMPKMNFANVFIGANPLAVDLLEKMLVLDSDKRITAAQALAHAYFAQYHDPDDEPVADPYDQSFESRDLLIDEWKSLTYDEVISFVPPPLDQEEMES
Description: Example 14—In Vitro Binding of p38 MAPK
Various concentrations of p38 MAPK dissolved in water were manually printed onto a bare gold-coated (thickness 47 nm) PlexArray Nanocapture Sensor Chip (Plexera Bioscience, Seattle, WA, US) at 40% humidity. Each concentration was printed in replicate, and each spot contained 0.2 μL of protein solution. The chip was incubated in 80% humidity at 4° C. for overnight, and rinsed with 10×PBST for 10 min, 1×PBST for 10 min, and deionized water twice for 10 min. The chip was then blocked with 5% (w/v) non-fat milk in water overnight, and washed with 10×PBST for 10 min, 1×PBST for 10 min, and deionized water twice for 10 min before being dried under a stream of nitrogen prior to use.
Surface Plasmon Resonance Imaging (SPRi) measurements were performed with PlexAray HT (Plexera Bioscience, Seattle, WA, US). Collimated light (660 nm) passes through the coupling prism, reflects off the SPR-active gold surface, and is received by the CCD camera. Buffers and samples were injected by a non-pulsatile piston pump into the 30 μL flowcell that was mounted on the coupling prism. Each measurement cycle contained four steps: washing with PBST running buffer at a constant rate of 2 μL/s to obtain a stable baseline, sample injection at 5 μL/s for binding, surface washing with PBST at 2 μL/s for 300 s, and regeneration with 0.5% (v/v) H3PO4 at 2 μL/s for 300 s. All the measurements were performed at 4° C.
The signal changes after binding and washing (in AU) are recorded as the assay value. Selected protein-grafted regions in the SPR images were analyzed, and the average reflectivity variations of the chosen areas were plotted as a function of time. Real-time binding signals were recorded and analyzed by Data Analysis Module (DAM, Plexera Bioscience, Seattle, WA, US). Kinetic analysis was performed using BIAevaluation 4.1 software (Biacore, Inc.).

Question: How did the lung hydroxyproline levels (Bleomycin-induced IPF; 15 mg/kg dose, oral twice daily, 14 days, vs Bleomycin control, FIG. 4) turn out when `CCOc1ccc(Oc2cc(S(=O)(=O)N(C)C)cnc2N2CCC(Oc3ccc(Cl)cc3)CC2)cc1` [Compound 7] was run?
Answer: The lung hydroxyproline levels was “significantly reduced”.

Question: And the “reduction of lung hydroxyproline levels compared with Pirfenidone” value (Bleomycin-induced IPF; Compound 7 15 mg/kg vs 100 mg/kg Pirfenidone)?
Answer: Its value is “higher than for 100 mg/kg Pirfenidone”.

Question: And the BALF macrophage counts (Bleomycin-induced IPF; compared with Bleomycin control, Compound 7 p>0.05, Pirfenidone p<0.05, FIGS. 5A and 5B)?
Answer: The BALF macrophage counts was “reduced”.

Question: What about the “% CPA (Collagen Proportion Area)” value (Bleomycin-induced IPF; lung, Masson's trichrome, in comparison with Bleomycin control, p<0.05, FIG. 6B) of the same compound?
Answer: The value was “significant reduction”.

Question: What about the “fibrosis score (H&E Ashcroft Score)” value (Bleomycin-induced IPF; lung, in comparison with Bleomycin control, p<0.05, FIG. 6A) of the same compound?
Answer: The value was “significant reduction”.

Question: And the Kd (p38 MAPK; SPRi, 4° C., p38 MAPK, read-out: equilibrium dissociation constant (KD Value))?
Answer: Its Kd is 11.9 nM.

Question: And the kon (p38 MAPK; read-out: Ka)?
Answer: The kon was 20800 M⁻¹ s⁻¹.

Question: And the koff (p38 MAPK; read-out: Kd)?
Answer: The koff was 0.000248 s⁻¹.
